Data on twelve molecules can be found in paper PMC3189207, “DomPep—A General Method for Predicting Modular Domain-Mediated Protein-Protein Interactions” (PLoS ONE, 2011).

For one test, the target named is T1, Scrib PDZ-1 domain (Homo sapiens, UniProt Q14160).
T1 construct: ROC curves of DomPep prediction for the three Scrib PDZ-1/2/3 domains
Kind of test: In-solution fluorescence polarization binding of peptides to Scrib PDZ1. Particulars: Kd value of 100 µM applied as binding cutoff, NB without definition, read-out: Kd (µM) PDZ1. On the technique in general: Fluorescence polarisation rises when a labelled molecule tumbles more slowly, as on binding a larger partner.

The target of the next test is T2, Scrib PDZ-2 domain (Homo sapiens, UniProt Q14160).
T2 construct: ROC curves of DomPep prediction for the three Scrib PDZ-1/2/3 domains
T2 sequence (Q14160 862-950 limits assumed): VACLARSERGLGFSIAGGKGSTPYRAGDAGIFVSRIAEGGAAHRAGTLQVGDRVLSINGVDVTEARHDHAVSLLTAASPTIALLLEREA
Kind of test: In-solution fluorescence polarization binding of peptides to Scrib PDZ2. As to conditions: Kd value of 100 µM applied as binding cutoff, NB without definition, read-out: Kd (µM) PDZ2.

The target of a further test is T3, Scrib PDZ-3 domain (Homo sapiens, UniProt Q14160).
T3 construct: ROC curves of DomPep prediction for the three Scrib PDZ-1/2/3 domains
T3 sequence (Q14160 1004-1093 limits assumed): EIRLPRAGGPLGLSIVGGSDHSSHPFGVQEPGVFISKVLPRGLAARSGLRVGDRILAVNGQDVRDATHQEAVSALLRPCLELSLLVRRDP
In words: In-solution fluorescence polarization binding of peptides to Scrib PDZ3. As to conditions: Kd value of 100 µM applied as binding cutoff, NB without definition. The text has this:
Because DomPep compared favorably to MDSM in identifying ligands for a PDZ domain included in the training set and to SPSSM in identifying binding peptides for an untrained PDZ domain, we next tested it whether it could reliably PPIs mediated by a PDZ domain on the genome scale. To this end, we employed three DomPep models to predict interactions between the Scrib PDZ domains and human proteins from the Swiss-Prot protein database. The three prediction models, which were generated for the mouse Scrib PDZ-1, PDZ-2 and PDZ-3 domains, were trained with 6, 5 and 30 positive peptide, respectively (Table S1). Searching the protein database with these models yielded a list of potential PDZ ligands. […] This experiment identified 14, 14, and 38 positives for the PDZ-1, -2, and -3 domains, respectively (Table 1). […] Importantly, we identified four peptides that were not included in the training set as physiological binders to the Scrib PDZ domains. The corresponding proteins, namely APC, LPP, VANGL2 and ZO2, were previously reported to interact with Scrib in vivo via its PDZ domains, [36], [37], [38], [39].
Figure 4 Application of DomPep to the prediction of PDZ-binding ligands. ROC curves of DomPep prediction for the three Scrib PDZ-1/2/3 domains using 56 peptides selected from the human protein database as the test set. The respective affinities of the three domains for the 56 peptides were measured by fluorescence polarization (Table 1).

Residues, ends and D or L forms follow the SMILES beside them.

T1 sequence (Q14160 728-815 limits assumed): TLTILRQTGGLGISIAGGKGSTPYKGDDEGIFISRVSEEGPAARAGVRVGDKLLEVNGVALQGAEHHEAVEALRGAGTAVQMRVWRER

Consider `CC[C@H](C)[C@H](NC(=O)[C@@H]1CCCN1C(=O)[C@@H]1CCCN1C(=O)[C@@H](NC(=O)[C@H](CO)NC(=O)[C@H](Cc1ccc(O)cc1)NC(=O)[C@H](CC(C)C)NC(=O)[C@@H](NC(=O)[C@@H](NC(=O)[C@@H](N)CO)C(C)C)C(C)C)[C@@H](C)O)C(=O)O` [FLT1] (H-SVVLYSTPPI-OH; N-terminus and C-terminus assumed), for which the dissociation constant Kd at Scrib PDZ-1 domain, at Scrib PDZ-2 domain and on Scrib PDZ-3 domain was over 100 µM in each case.
With `CC(C)C[C@H](NC(=O)[C@H](C)NC(=O)[C@@H](NC(=O)[C@H](CO)NC(=O)[C@@H](N)CO)[C@@H](C)O)C(=O)N[C@@H](Cc1c[nH]cn1)C(=O)N[C@@H](CCC(N)=O)C(=O)N[C@@H](Cc1c[nH]cn1)C(=O)N[C@@H](Cc1c[nH]cn1)C(=O)N[C@@H](Cc1ccccc1)C(=O)O` [LIMD1] (H-SSTALHQHHF-OH; N-terminus and C-terminus assumed), the Kd at Scrib PDZ-1 domain, on Scrib PDZ-2 domain and on Scrib PDZ-3 domain was over 100 µM each time.
As for `CC(C)[C@H](NC(=O)[C@H](CCCNC(=N)N)NC(=O)[C@@H](N)CC(=O)O)C(=O)N[C@@H](C)C(=O)N[C@@H](CCC(=O)O)C(=O)N[C@@H](CCC(N)=O)C(=O)N[C@@H](CC(=O)O)C(=O)N[C@H](C(=O)N[C@@H](CCC(N)=O)C(=O)N[C@@H](C)C(=O)O)[C@@H](C)O` [MPG] (H-DRVAEQDTQA-OH), the results for the equilibrium dissociation constant (Kd) on Scrib PDZ-1 domain, on Scrib PDZ-2 domain and at Scrib PDZ-3 domain were over 100 µM, over 100 µM and 186 µM, respectively.
As to `CC(C)C[C@H](NC(=O)[C@@H](NC(=O)[C@H](CCCCN)NC(=O)[C@H](CC(C)C)NC(=O)[C@H](Cc1ccccc1)NC(=O)[C@H](CCCCN)NC(=O)[C@H](CCC(=O)O)NC(=O)[C@H](Cc1ccccc1)NC(=O)[C@H](CC(=O)O)NC(=O)[C@@H](N)CCC(N)=O)[C@@H](C)O)C(=O)O` [MTERFD1] (H-QDFEKFLKTL-OH; N-terminus and C-terminus assumed), the equilibrium dissociation constant (Kd) on Scrib PDZ-1 domain, on Scrib PDZ-2 domain and at Scrib PDZ-3 domain was over 100 µM in each case.
For `CC(C)[C@H](NC(=O)[C@H](CO)NC(=O)[C@@H](NC(=O)[C@@H](NC(=O)CNC(=O)[C@H](CCC(=O)O)NC(=O)[C@H](C)NC(=O)[C@H](CCCNC(=N)N)NC(=O)[C@H](CCC(=O)O)NC(=O)[C@@H](N)CS)[C@@H](C)O)C(C)C)C(=O)O` [MUSK] (H-CERAEGTVSV-OH), the Kd on Scrib PDZ-1 domain was over 100 µM; on Scrib PDZ-2 domain it was over 100 µM; on Scrib PDZ-3 domain, 143 µM.
For the molecule `CC[C@H](C)[C@H](NC(=O)[C@@H](NC(=O)[C@H](Cc1ccccc1)NC(=O)[C@H](CCC(=O)O)NC(=O)[C@@H]1CCCN1C(=O)[C@H](CC(N)=O)NC(=O)[C@@H](NC(=O)[C@@H](N)Cc1ccc(O)cc1)[C@@H](C)O)C(C)C)C(=O)N[C@@H](CC(N)=O)C(=O)N[C@H](C(=O)O)C(C)C` [PRKCB1] (H-YTNPEFVINV-OH; N-terminus and C-terminus assumed), the Kd on Scrib PDZ-1 domain, at Scrib PDZ-2 domain and at Scrib PDZ-3 domain was over 100 µM each time.
For the molecule `CC(C)[C@H](NC(=O)[C@H](CO)NC(=O)[C@H](CCCCN)NC(=O)[C@H](CCCCN)NC(=O)[C@H](CO)NC(=O)[C@H](CCCCN)NC(=O)[C@H](CCCCN)NC(=O)[C@H](CCCCN)NC(=O)[C@H](CCC(=O)O)NC(=O)[C@H](C)N)C(=O)O` [PSMA8] (H-AEKKKSKKSV-OH), the figures for the equilibrium dissociation constant (Kd) at Scrib PDZ-1 domain, at Scrib PDZ-2 domain and at Scrib PDZ-3 domain were over 100 µM, over 100 µM and 177 µM, respectively.
`CC(C)C[C@H](NC(=O)[C@H](CCCCN)NC(=O)[C@H](CO)NC(=O)[C@H](CCC(=O)O)NC(=O)[C@H](CO)NC(=O)[C@@H](NC(=O)[C@H](CCC(N)=O)NC(=O)[C@@H]1CCCN1C(=O)[C@H](CCCCN)NC(=O)[C@@H](N)C(C)C)C(C)C)C(=O)O` [PTE1] (H-VKPQVSESKL-OH; N-terminus and C-terminus assumed): the Kd on Scrib PDZ-1 domain, on Scrib PDZ-2 domain and at Scrib PDZ-3 domain was over 100 µM each time.
As to `CC(C)C[C@H](NC(=O)[C@H](CS)NC(=O)[C@H](CC(=O)O)NC(=O)[C@@H](NC(=O)[C@H](CC(N)=O)NC(=O)[C@H](CCCNC(=N)N)NC(=O)[C@H](CC(C)C)NC(=O)CNC(=O)CNC(=O)[C@@H](N)CC(=O)O)C(C)C)C(=O)O` [TBK1] (H-DGGLRNVDCL-OH), the dissociation constant (Kd) on Scrib PDZ-1 domain was 77 µM; at Scrib PDZ-2 domain, over 100 µM; on Scrib PDZ-3 domain, 67.8 µM.
Regarding `CC[C@H](C)[C@H](NC(=O)[C@@H](N)CC(N)=O)C(=O)NCC(=O)N[C@@H](CO)C(=O)N[C@@H](CCC(N)=O)C(=O)NCC(=O)N[C@@H](CO)C(=O)N[C@H](C(=O)N[C@@H](CC(=O)O)C(=O)N[C@@H](Cc1ccc(O)cc1)C(=O)O)[C@@H](C)O` [TRIM21] (H-NIGSQGSTDY-OH), the Kd on Scrib PDZ-1 domain is over 100 µM; on Scrib PDZ-2 domain, over 100 µM; at Scrib PDZ-3 domain it was 116 µM.
As for `CC[C@H](C)[C@H](NC(=O)[C@H](C)NC(=O)[C@H](CO)NC(=O)[C@H](CC(C)C)NC(=O)[C@H](CC(C)C)NC(=O)[C@@H](N)CCC(=O)O)C(=O)N[C@@H](CCC(=O)O)C(=O)N[C@@H](CCCCN)C(=O)N[C@@H](CC(C)C)C(=O)N[C@@H](CC(C)C)C(=O)O` [UBXD1] (H-ELLSAIEKLL-OH; N-terminus and C-terminus assumed), the equilibrium dissociation constant (Kd) on Scrib PDZ-1 domain, at Scrib PDZ-2 domain and at Scrib PDZ-3 domain was over 100 µM each time.
In the case of `CC(C)C[C@H](NC(=O)[C@H](CCCCN)NC(=O)[C@H](CO)NC(=O)[C@H](CC(N)=O)NC(=O)[C@@H](NC(=O)[C@H](CO)NC(=O)[C@H](Cc1c[nH]cn1)NC(=O)[C@@H]1CCCN1C(=O)[C@H](CC(C)C)NC(=O)[C@@H](N)CCC(=O)O)C(C)C)C(=O)O` [ZADH2] (H-ELPHSVNSKL-OH; N-terminus and C-terminus assumed), the equilibrium dissociation constant (Kd) on Scrib PDZ-1 domain, at Scrib PDZ-2 domain and at Scrib PDZ-3 domain was over 100 µM each time.

The Kd is the concentration at which binding is half-saturated.
